This test addresses T1, DPPS; decaprenyl diphosphate synthase (Homo sapiens, UniProt Q5T2R2).
T1 sequence (Q5T2R2 1-415): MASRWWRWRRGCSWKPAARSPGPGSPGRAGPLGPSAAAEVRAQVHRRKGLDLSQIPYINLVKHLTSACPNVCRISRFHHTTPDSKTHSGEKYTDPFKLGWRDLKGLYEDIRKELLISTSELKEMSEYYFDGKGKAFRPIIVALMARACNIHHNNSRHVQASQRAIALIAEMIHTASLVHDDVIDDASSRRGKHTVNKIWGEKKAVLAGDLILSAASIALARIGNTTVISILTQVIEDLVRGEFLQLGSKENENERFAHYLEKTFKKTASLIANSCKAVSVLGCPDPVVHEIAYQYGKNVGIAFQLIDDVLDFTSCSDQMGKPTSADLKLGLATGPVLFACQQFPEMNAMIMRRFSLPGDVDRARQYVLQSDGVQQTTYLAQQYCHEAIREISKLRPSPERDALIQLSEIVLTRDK
T1 sequence (Q86YH6 1-399 partner): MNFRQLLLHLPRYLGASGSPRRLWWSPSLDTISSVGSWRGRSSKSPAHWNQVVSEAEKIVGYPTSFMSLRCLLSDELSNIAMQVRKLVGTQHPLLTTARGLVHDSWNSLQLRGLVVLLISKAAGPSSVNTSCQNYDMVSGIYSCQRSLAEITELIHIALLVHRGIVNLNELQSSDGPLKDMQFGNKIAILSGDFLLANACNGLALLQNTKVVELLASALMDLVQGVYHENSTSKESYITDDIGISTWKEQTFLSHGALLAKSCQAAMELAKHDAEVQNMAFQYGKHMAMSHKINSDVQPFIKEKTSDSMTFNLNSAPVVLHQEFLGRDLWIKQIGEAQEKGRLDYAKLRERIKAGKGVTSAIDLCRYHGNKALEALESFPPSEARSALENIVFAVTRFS
Briefly: DPPS inhibition assay. It counts as biochemical.

For orientation: IC50 means the concentration that gives 50% inhibition.

The structures appear in SMILES notation.

For `O=P(O)(O)C(O)(Cn1ccnc1)P(=O)(O)O` [zoledronate], half-maximal inhibition (IC50) was put at 5.5 µM.
